Laboratory results taken from publication PMC5268383, “Inhibition of STAT3 by Anticancer Drug Bendamustine” (PLoS ONE, 2017).

How the values were obtained:
[1] = target: T1, cellular STAT3 in MDA-MB-468 cells (Homo sapiens, UniProt P40763); assay: Pull-down assay using Bio-BENDA, anti-STAT3 immunoprecipitation; type: cell-based; conditions: 50 μM Bio-BENDA plus excess free drug, 4 h
T1 construct: endogenous in cells; host or cells: MDA-MB-468
Description: MDA-MB-468 cells were treated with biotinylated BENDA (Bio-BENDA) in the presence or absence of an excess amount of free drugs for 4 h and then lysed in PhosphoSafe™ Extraction Reagent (Merck, Darmstadt, Germany). Lysate (200 μL) was precleared with a mixture of Protein G Plus/Protein A Agarose Suspension (EMD Millipore, Billerica, MA, USA) for 1 h at 4°C and protein A and G agarose were removed by centrifugation at 13,000 rpm for 10 min. The lysate (200 μL) was immunoprecipitated with STAT3 antibody (1 μL) overnight at 4°C on a shaker and the immunocomplex was captured by the addition of a Protein G Plus/Protein A Agarose Suspension (30 μL) slurry for 1 h at 4°C. Samples were washed five times with lysis buffer and then boiled four times in SDS-PAGE sample buffer and run on an SDS-PAGE gel. The protein was transferred to a nitrocellulose membrane. The membranes were blocked in 5% skim milk in TBS/0.1% Tween 20. They were then incubated with streptavidin-HRP diluted at 1:2000 in 1.5% skim milk in TBS (pH7.4)/0.1% Tween 20 overnight at 4°C. Immunoblots were developed by using a chemiluminescent substrate.

Grb2 SH2 = target: T2, Grb2 SH2 (Homo sapiens, UniProt P62993); assay: AlphaScreen SH2 binding assay, Grb2
T2 construct: Avi-tag (N); 6His-tag (N)
T2 sequence (P62993 whole entry): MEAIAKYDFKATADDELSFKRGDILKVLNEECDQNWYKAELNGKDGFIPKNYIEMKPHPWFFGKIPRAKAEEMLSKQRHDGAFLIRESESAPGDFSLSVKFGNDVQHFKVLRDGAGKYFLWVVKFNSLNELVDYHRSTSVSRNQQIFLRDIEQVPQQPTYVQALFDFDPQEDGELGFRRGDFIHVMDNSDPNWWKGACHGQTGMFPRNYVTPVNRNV
Description: (§1) AlphaScreen assays were performed in a final reaction volume of 25 μL of the assay buffer, containing 10 mM HEPES-NaOH (pH 7.4), 50 mM NaCl, 1 mM EDTA (pH 8.0), 0.1% NP-40, and 10 ng/mL BSA in a 96-well microtiter plate at 25°C. The labeled Phospho-Tyr (pTyr) peptide probe was 5-carboxyfluorescein (FITC)-GpYLPQTV for STAT3, FITC-GpYDKPHVL for STAT1, and FITC-PSpYVNVQN for Grb2. A DMSO solution of BENDA was incubated with 50 nM of each SH2-containing protein for 15 min, 50 nM of the corresponding FITC-pTyr peptide was added, and the mixture was incubated for 90 min. Streptavidin-coated donor beads and anti-FITC acceptor beads were added and incubated for 90 min before the signals were measured with an Envision Xcite plate reader (PerkinElmer Life Sciences, Waltham, MA, USA).

[2] = target: T3, STAT3 Cys712 mutant (C712A) (Homo sapiens, UniProt P40763, C712A); assay: SH2 binding AlphaScreen assay with Cys712 mutant recombinant STAT3; conditions: 100 μM BENDA, 375 nM mutant STAT3, 30 min
T3 construct: Full-length cDNAs were obtained from a human cDNA library by PCR; Avi-tag (N); 6His-tag (N); made in house; host or cells: Escherichia coli (pET-28a; host inferred to be the same BirA-BL21 as for wild type)
T3 sequence (P40763 whole entry C712A): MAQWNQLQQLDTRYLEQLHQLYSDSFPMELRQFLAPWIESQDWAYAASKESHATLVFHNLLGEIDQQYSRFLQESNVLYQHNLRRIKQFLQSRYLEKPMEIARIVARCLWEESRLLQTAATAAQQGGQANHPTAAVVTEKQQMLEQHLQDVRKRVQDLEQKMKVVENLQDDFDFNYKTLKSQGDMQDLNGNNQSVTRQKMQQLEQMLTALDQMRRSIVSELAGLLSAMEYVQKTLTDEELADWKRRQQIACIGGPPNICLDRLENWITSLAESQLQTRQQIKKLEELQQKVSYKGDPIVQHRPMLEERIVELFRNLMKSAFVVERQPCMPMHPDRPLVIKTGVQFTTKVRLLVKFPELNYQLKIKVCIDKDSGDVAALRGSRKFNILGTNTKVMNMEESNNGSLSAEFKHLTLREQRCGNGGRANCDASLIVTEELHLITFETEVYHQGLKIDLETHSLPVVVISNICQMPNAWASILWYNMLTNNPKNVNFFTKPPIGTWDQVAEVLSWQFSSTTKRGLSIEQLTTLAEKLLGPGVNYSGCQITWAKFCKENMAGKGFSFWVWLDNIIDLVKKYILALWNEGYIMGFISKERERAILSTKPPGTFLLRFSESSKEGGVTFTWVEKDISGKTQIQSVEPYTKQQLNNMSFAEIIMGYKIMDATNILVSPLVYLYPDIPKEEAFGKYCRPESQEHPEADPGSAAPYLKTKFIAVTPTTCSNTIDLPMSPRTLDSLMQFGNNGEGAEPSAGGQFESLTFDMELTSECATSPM
Description: Point mutations were introduced into recombinant human STAT3 (rhSTAT3) by inverse PCR. We mutated Cys468, Cys542, Cys550, Cys687, and Cys712 near the SH2 domain to alanine. Inverse PCR was performed by using pBluescript II KS (+) as a template, KOD-Plus-ver. 2 (Toyobo, Osaka, Japan), and the following oligonucleotide primer set: Cys468 (forward: 5’-TCCAACATCG CTCAGATGCC AAATG-3’, reverse: 5′-GATCACCACA ACTGGCAAGG AGTGG-3′); Cys542 (forward: 5′-GAATTATTCAGGGGCTCAGATCACATGGGCTAAAT-3′, reverse: 5′-ACACCAGGTC CCAAGAGTTT CTCTGCC-3′); Cys550 (forward: 5′-GCTAAATTTG CCAAAGAAAA CATGGCTGGC-3′, reverse: 5′-CCATGTGATC TGACACCCTG AATAATTCA CACC-3′); Cys687 (forward: 5′-GGAAAGTATG CTCGGCCAGA GAGCCAG-3′, reverse: 5′-GAATGCCTCC TCCTTGGGAA TGTCAGG-3′); and Cys712 (forward: 5′-AAGTTTATCG CTGTGACACC AACGACCTGC-3′, reverse: 5′-GGTCTTCAGG TATGGGGCAG CGCTAC-3′). Inverse PCR (1 × PCR buffer, 1.5 mM MgSO4, 15 pmol 5′ primer and 3′ primer, 0.2 mM dNTPs, 50 ng STAT3 cDNA, 1 U KOD Plus) was performed under the following conditions: 2 min at 94°C, (10 s at 98°C, and 6.5 min at 68°C)×7 cycles. The amplified fragment was ligated by using Ligation High ver. 2 (Toyobo). The resultant plasmid was cloned into the HindIII/XhoI sites of modified pET-28a (+). The nucleotides coding for human mutant STAT3 in pET-28a (+) were named mutant STAT3 His-Avi-pET28a (+). […]

[3] = target: T4, STAT3-CFP / STAT3-YFP in HEK293 cells (Homo sapiens, UniProt P40763); assay: FRET assay of STAT3 dimerization; type: cell-based; conditions: HEK293, 10, 20 or 50 μM, pretreatment before 50 ng/mL IL-6 stimulation
T4 construct: expressed in transfected cells; host or cells: HEK293
T4 sequence (P40763 whole entry): as the sequence (P40763 whole entry C712A) above, with A712C counted along it
Description: The expression vectors for the fusion proteins STAT3-CFP and STAT3-YFP were prepared by the addition of STAT3 cDNA to pAmCyan1-N1 and pZsyellow1-N1. The vector mixture (1:1) was transfected into HEK293 cells with Lipofectamine 2000. The cells were cultured with 2% FBS DMEM for 48 h in a 96-well microtiter plate, treated with 0, 10, 20, or 50 μM BENDA or HP2 in a final DMSO concentration of 0.2% for 24 h, and then stimulated with 50 ng/mL IL-6 for a further 1 h. Fluorescence signals were measured (SpectraMax M5SK). The signals measured by FRET (excitation/emission: 436/528 nm) were corrected for crosstalk signals from cyan (excitation/emission: 436/488 nm) and yellow (excitation/emission: 517/528 nm).

STAT1 SH2 = target: T5, STAT1 SH2 (Homo sapiens, UniProt P42224); assay: AlphaScreen SH2 binding assay, STAT1
T5 construct: Avi-tag (N); 6His-tag (N)
T5 sequence (P42224 whole entry): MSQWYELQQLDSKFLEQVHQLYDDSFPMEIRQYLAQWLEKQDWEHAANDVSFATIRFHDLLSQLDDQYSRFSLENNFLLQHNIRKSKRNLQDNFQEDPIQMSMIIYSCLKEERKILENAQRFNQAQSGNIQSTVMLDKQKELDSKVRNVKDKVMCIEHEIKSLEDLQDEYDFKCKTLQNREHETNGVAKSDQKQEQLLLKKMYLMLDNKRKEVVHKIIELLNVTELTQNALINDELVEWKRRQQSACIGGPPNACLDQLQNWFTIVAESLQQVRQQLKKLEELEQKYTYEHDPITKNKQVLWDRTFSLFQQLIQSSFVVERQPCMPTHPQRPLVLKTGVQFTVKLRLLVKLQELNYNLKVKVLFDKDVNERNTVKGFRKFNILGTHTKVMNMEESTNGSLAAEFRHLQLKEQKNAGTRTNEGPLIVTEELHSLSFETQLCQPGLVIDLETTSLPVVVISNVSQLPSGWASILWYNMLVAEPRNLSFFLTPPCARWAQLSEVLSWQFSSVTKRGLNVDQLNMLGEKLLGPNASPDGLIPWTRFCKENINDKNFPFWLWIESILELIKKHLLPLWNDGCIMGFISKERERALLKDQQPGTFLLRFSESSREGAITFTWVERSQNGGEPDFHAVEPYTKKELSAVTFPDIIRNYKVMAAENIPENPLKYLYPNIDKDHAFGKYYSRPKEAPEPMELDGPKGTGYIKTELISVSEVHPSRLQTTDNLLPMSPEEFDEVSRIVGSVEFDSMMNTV
Description: as §1

T1 sequence (P40763 2-770 limits assumed): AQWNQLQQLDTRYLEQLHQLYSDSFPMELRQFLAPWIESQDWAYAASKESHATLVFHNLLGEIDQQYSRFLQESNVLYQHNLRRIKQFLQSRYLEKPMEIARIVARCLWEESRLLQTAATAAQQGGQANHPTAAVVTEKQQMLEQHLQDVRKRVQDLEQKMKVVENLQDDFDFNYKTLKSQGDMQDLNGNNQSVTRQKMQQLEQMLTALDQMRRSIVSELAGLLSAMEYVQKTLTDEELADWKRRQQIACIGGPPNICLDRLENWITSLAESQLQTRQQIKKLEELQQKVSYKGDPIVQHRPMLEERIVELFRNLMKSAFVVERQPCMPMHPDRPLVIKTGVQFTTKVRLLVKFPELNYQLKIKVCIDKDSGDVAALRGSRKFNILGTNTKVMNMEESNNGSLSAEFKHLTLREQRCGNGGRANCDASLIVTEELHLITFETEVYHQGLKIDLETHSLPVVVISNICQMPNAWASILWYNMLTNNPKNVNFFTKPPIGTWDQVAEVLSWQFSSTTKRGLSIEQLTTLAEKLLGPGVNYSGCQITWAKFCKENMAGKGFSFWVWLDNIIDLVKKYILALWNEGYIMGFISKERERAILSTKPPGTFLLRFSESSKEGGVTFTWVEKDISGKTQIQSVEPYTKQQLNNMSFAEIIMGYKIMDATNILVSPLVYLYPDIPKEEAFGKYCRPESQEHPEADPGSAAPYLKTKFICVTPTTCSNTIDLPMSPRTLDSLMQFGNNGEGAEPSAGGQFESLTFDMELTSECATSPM

Cn1c(CCCC(=O)O)nc2cc(N(CCCl)CCCl)ccc21 [BENDA, 4-{5-[bis(2-chloroethyl)amino]-1-methyl-2-benzimidazolyl} butyric acid]
Competition of Bio-BENDA STAT3 band intensity by excess free drug [1]: competitively reduced | IC50 (Grb2 SH2): > 100 µM | inhibition at 100 µM [2]: 25% | Effect on FRET signals (STAT3 dimerization) [3]: reduced the FRET signals | IC50 (STAT1 SH2): 60 µM
